Experimental data reported in PubChem BioAssay (NCI).
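Step 1: Grow cells in 96-well plates. Step 2: Expose to compound for 48 hours at 5 concentrations. Step 3: Interpolate endpoints linearly; if unreached, use highest concentration. The concentration for full growth arrest is given as TGI.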

What was measured:
Experiment in all cases: NCI tumour cell line growth inhibition, 48 h
[1] = test system: SF-539 CNS
[2] = test system: NCI-H23 lung
[3] = test system: NCI-H226 lung
[4] = test system: OVCAR-3 ovarian
[5] = test system: SK-MEL-28 melanoma
[6] = test system: MDA-N
[7] = test system: OVCAR-4 ovarian
[8] = test system: K-562 leukemia
[9] = test system: UACC-62 melanoma
[10] = test system: SF-268 CNS
[11] = test system: MDA-MB-231 breast
[12] = test system: OVCAR-5 ovarian
[13] = test system: T-47D breast
[14] = test system: M14 melanoma
[15] = test system: HOP-62 NSCLC
[16] = test system: MCF7 breast
[17] = test system: EKVX NSCLC
[18] = test system: HCT-15 colon
[19] = test system: HCC-2998 colon
[20] = test system: NCI/ADR-RES ovarian
[21] = test system: NCI-H460 lung
[22] = test system: IGROV1 ovarian
[23] = test system: ACHN renal
[24] = test system: SR leukemia
[25] = test system: MOLT-4 leukemia
[26] = test system: PC-3 prostate
[27] = test system: HT29 colon
[28] = test system: SF-295 CNS
[29] = test system: SN12C renal
[30] = test system: A549 NSCLC
[31] = test system: SNB-19 CNS
[32] = test system: LOX IMVI melanoma
[33] = test system: SK-MEL-5 melanoma
[34] = test system: DU-145 prostate
[35] = test system: 786-0 renal
[36] = test system: RXF 393 renal
[37] = test system: COLO 205 colon
[38] = test system: HS 578T breast
[39] = test system: SK-OV-3 ovarian
[40] = test system: UACC-257 melanoma
[41] = test system: U251 CNS
[42] = test system: SK-MEL-2 melanoma
[43] = test system: HCT-116 colon
[44] = test system: A498 renal
[45] = test system: HOP-92 NSCLC
[46] = test system: RPMI-8226 leukemia
[47] = test system: OVCAR-8 ovarian
[48] = test system: CAKI-1 renal
[49] = test system: MALME-3M melanoma
[50] = test system: SW-620 colon
[51] = test system: MDA-MB-435
[52] = test system: TK-10 renal
[53] = test system: UO-31 renal
[54] = test system: NCI-H522 lung
[55] = test system: SNB-75 CNS
[56] = test system: BT-549 breast
[57] = test system: CCRF-CEM leukemia
[58] = test system: KM12 colon

`COc1ccc2cc(C(=O)NCCc3ccccc3)ccc2c1OC` showed a TGI [1] of 70.3 µM, a TGI [2] of over 100 µM and a TGI [3] of over 100 µM. For the same compound, the TGI [4] was over 100 µM, the TGI [5] was over 100 µM and the TGI [6] was over 100 µM. For the same compound, the TGI [7] was over 100 µM, the TGI [8] was over 100 µM and the TGI [9] was over 100 µM. It also gave a TGI [10] of over 100 µM, a TGI [11] of 87.4 µM and a TGI [12] of over 100 µM. The TGI [13] was over 100 µM, the TGI [14] was over 100 µM and the TGI [15] was 75.3 µM. For the same compound, the TGI [16] was over 100 µM, the TGI [17] was over 100 µM and the TGI [18] was over 100 µM. For the same compound, the TGI [19] was over 100 µM, the TGI [20] was over 100 µM and the TGI [21] was over 100 µM. For the same compound, the TGI [22] was over 100 µM, the TGI [23] was over 100 µM and the TGI [24] was over 100 µM. The TGI [25] was over 100 µM, the TGI [26] was over 100 µM and the TGI [27] was over 100 µM. The TGI [28] was over 100 µM, the TGI [29] was over 100 µM and the TGI [30] was over 100 µM. The TGI [31] was over 100 µM, the TGI [32] was over 100 µM and the TGI [33] was over 100 µM. It also gave a TGI [34] of over 100 µM, a TGI [35] of over 100 µM and a TGI [36] of 70.7 µM. It also gave a TGI [37] of over 100 µM, a TGI [38] of over 100 µM and a TGI [39] of over 100 µM. For the same compound, the TGI [40] was over 100 µM, the TGI [41] was over 100 µM and the TGI [42] was over 100 µM. The TGI [43] was over 100 µM, the TGI [44] was over 100 µM and the TGI [45] was over 100 µM. The TGI [46] was over 100 µM, the TGI [47] was over 100 µM and the TGI [48] was over 100 µM. It also gave a TGI [49] of over 100 µM, a TGI [50] of over 100 µM and a TGI [51] of over 100 µM.

`NS(=O)(=O)c1ccc(CNC(=S)NC(=O)Nc2ccc(Cl)c(Cl)c2)cc1` was tested, and the TGI [1] was 41.5 µM, the TGI [2] was 30.2 µM and the TGI [5] was 69.8 µM. It also gave a TGI [52] of over 100 µM, a TGI [6] of 46.4 µM and a TGI [7] of over 100 µM. It also gave a TGI [8] of 39.5 µM, a TGI [9] of 29.3 µM and a TGI [10] of 52.8 µM. It also gave a TGI [11] of 25.5 µM, a TGI [12] of over 100 µM and a TGI [13] of 60.2 µM. For the same compound, the TGI [14] was 35.8 µM, the TGI [15] was 38.3 µM and the TGI [16] was 39 µM. The TGI [18] was 31.8 µM, the TGI [53] was 32.5 µM and the TGI [20] was 41.1 µM. It also gave a TGI [21] of 94 µM, a TGI [54] of 34.2 µM and a TGI [22] of 50.5 µM. The TGI [23] was 46 µM, the TGI [25] was 40.2 µM and the TGI [26] was 25.2 µM. The TGI [27] was 61.1 µM, the TGI [55] was 60.2 µM and the TGI [28] was 33.2 µM. For the same compound, the TGI [29] was 33.3 µM, the TGI [30] was 65.5 µM and the TGI [31] was 44.3 µM. The TGI [56] was 34.7 µM, the TGI [32] was 27.9 µM and the TGI [33] was 33 µM. It also gave a TGI [57] of 43.4 µM, a TGI [34] of over 100 µM and a TGI [35] of 34.3 µM. For the same compound, the TGI [36] was 84.7 µM, the TGI [37] was 77.4 µM and the TGI [38] was 38.1 µM. The TGI [39] was 52.8 µM, the TGI [40] was over 100 µM and the TGI [41] was 26.7 µM. For the same compound, the TGI [42] was 31.4 µM, the TGI [58] was 43.1 µM and the TGI [43] was 32.6 µM. It also gave a TGI [44] of 33.5 µM, a TGI [45] of 52.9 µM and a TGI [46] of 41.6 µM. It also gave a TGI [47] of 53.4 µM, a TGI [49] of 57.1 µM and a TGI [50] of 44.7 µM.
